Assay results as given in PubChem BioAssay AID743297 (The Scripps Research Institute Molecular Screening Center, 2014).
The source made the active and inactive calls.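 How the source made its calls: active means IC50 against TDP2 at or below a set limit; inactive means IC50 above that limit.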

Target: Tyrosyl-DNA phosphodiesterase 2 (Homo sapiens) (UniProt O95551)
Assay: potency against TDP2 phosphodiesterase activity – biochemical, epi absorbance, IC50, dose response (AID 743297)
Conditions: recombinant TDP2, T5PNP hydrolysis, absorbance 415 nm

Tyrosyl-DNA phosphodiesterase 2 (Homo sapiens), sequence (O95551 whole entry, looked up): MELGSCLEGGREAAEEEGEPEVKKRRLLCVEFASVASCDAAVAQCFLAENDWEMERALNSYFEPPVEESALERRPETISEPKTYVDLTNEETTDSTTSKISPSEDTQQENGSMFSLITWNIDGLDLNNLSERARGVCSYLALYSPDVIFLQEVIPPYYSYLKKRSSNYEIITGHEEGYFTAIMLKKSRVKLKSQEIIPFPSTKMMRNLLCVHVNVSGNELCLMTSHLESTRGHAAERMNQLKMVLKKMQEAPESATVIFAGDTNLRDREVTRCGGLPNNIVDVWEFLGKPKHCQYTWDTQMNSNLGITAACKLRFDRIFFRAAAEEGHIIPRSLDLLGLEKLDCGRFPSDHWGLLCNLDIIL

IC50: inactive
Structure (SMILES): C[c-]1[c-](C)[c-](C)[c-](C)[c-]1C.[Fe].c1cc2nccc(N3CCCC3)[c-]2c1 (stereo unspecified)
